US8178506B2, “Oligomeric compounds and compositions for use in modulation of small non-coding RNAs” (Regulus Therapeutics Inc., priority 2003, dated 2012)
In the oligonucleotide strings, read from the 5' end, every base follows the letter of its sugar. An asterisk marks phosphorothioate; unmarked linkages are phosphodiester. Other units and linkages are bracketed, terminal groups are in braces. A string of capitals states the bases alone. e = 2'-O-(2-methoxyethyl) (MOE); [5mC] = 5-methylcytosine; d = 2'-deoxy (DNA)

Legend:
Assay type in all cases: cell-based, human
adipocytes = experiment: Triglyceride accumulation assay in adipocytes
aP2 = aP2 mRNA expression in adipocytes (real-time PCR); settings: for aP2 mRNA: Table 75
HSL = HSL mRNA expression in adipocytes (real-time PCR)
Glut4 = Glut4 mRNA expression in adipocytes (real-time PCR)
PPARγ = PPARγ mRNA expression in adipocytes (real-time PCR)
[1] = Table 17, differentiating adipocytes, control = treatment with ISIS 342673
[2] = differentiating adipocytes transfected with oligomeric compound, Table 75
[3] = differentiating adipocytes transfected with oligomeric compound
[4] = Table 20, adipocyte differentiation assay as in Example 13

Substance: 328137 (eG*eT*eA*eA*eG*e[5mC]*eG*e[5mC]*eA*eG*e[5mC]*eT*e[5mC]*e[5mC]*eA*e[5mC]*eA*eG*eG*e[5mC]*eT; anti-miR) [compound 328137]
- TG (triglyceride accumulation) (adipocytes; [1]): 83.2 percentage of control
- TG (triglyceride accumulation) (adipocytes; [2]): 37 percentage of untreated control (UTC)
- AP2 mRNA (aP2; [1]): 99.6 percentage of control
- aP2 mRNA (aP2; [3]): 45 percentage of untreated control (UTC)
- HSL mRNA (HSL; [1]): 86.3 percentage of control
- HSL mRNA (HSL; [2]): 25 percentage of untreated control (UTC)
- GLUT4 mRNA (Glut4; [1]): 88.5 percentage of control
- GLUT4 mRNA (Glut4; [2]): 29 percentage of untreated control (UTC)
- PPAR gamma mRNA (PPARγ; [1]): 85.7 percentage of control
- PPAR gamma mRNA (PPARγ; [2]): 36 percentage of untreated control (UTC)

Substance: 328138 (eG*eA*eG*e[5mC]*eT*eG*e[5mC]*eT*e[5mC]*eA*eG*e[5mC]*eT*eG*eG*e[5mC]*e[5mC]*eA*eT*e[5mC]*eA; anti-miR) [compound 328138]
- TG (triglyceride accumulation) (adipocytes; [1]): 100.6 percentage of control
- TG (triglyceride accumulation) (adipocytes; [2]): 80 percentage of untreated control (UTC)
- AP2 mRNA (aP2; [1]): 85.3 percentage of control
- aP2 mRNA (aP2; [3]): 52 percentage of untreated control (UTC)
- HSL mRNA (HSL; [1]): 89.8 percentage of control
- HSL mRNA (HSL; [2]): 56 percentage of untreated control (UTC)
- GLUT4 mRNA (Glut4; [1]): 86.8 percentage of control
- GLUT4 mRNA (Glut4; [2]): 52 percentage of untreated control (UTC)
- PPAR gamma mRNA (PPARγ; [1]): 83.8 percentage of control
- PPAR gamma mRNA (PPARγ; [2]): 63 percentage of untreated control (UTC)

Substance: 328362 (eT*eG*eT*eG*eT*dT*dT*dT*d[5mC]*dT*dG*dA*d[5mC]*dT*d[5mC]*eA*eG*eT*e[5mC]*eA) [compound 328362]
- TG (triglyceride accumulation) (adipocytes; [3]): 73 percentage of untreated control (UTC)
- AP2 mRNA (aP2; [3]): 59 percentage of untreated control (UTC)
- HSL mRNA (HSL; [3]): 83 percentage of untreated control (UTC)
- GLUT4 mRNA (Glut4; [3]): 80 percentage of untreated control (UTC)
- PPAR gamma mRNA (PPARγ; [3]): 78 percentage of untreated control (UTC)

Substance: 328382 (e[5mC]*eA*eG*eA*e[5mC]*dT*d[5mC]*d[5mC]*d[5mC]*dA*dA*d[5mC]*dT*dG*dA*e[5mC]*e[5mC]*eA*eG*eA) [compound 328382]
- TG (adipocytes; [4]): 0.72
- AP2 (aP2; [4]): 0.89
- HSL (HSL; [4]): 0.75
- Glut4 (Glut4; [4]): 0.85
- PPAR gamma (PPARγ; [4]): 0.96

Substance: 328677 (eT*e[5mC]*e[5mC]*eT*eG*dG*dA*dT*dG*dA*dT*dA*dT*d[5mC]*dT*eA*e[5mC]*e[5mC]*eT*e[5mC]; antisense) [compound 328677]
- TG (triglyceride accumulation) (adipocytes; [3]): 34 percentage of untreated control (UTC)
- AP2 mRNA (aP2; [3]): 61 percentage of untreated control (UTC)
- HSL mRNA (HSL; [3]): 68 percentage of untreated control (UTC)
- GLUT4 mRNA (Glut4; [3]): 44 percentage of untreated control (UTC)
- PPAR gamma mRNA (PPARγ; [3]): 89 percentage of untreated control (UTC)

Substance: 328685 (e[5mC]*eG*eG*e[5mC]*e[5mC]*dG*dG*dA*dG*d[5mC]*d[5mC]*dA*dT*dA*dG*eA*e[5mC]*eT*e[5mC]*eG; antisense) [compound 328685]
- TG (triglyceride accumulation) (adipocytes; [3]): 50 percentage of untreated control (UTC)
- AP2 mRNA (aP2; [3]): 73 percentage of untreated control (UTC)
- HSL mRNA (HSL; [3]): 100 percentage of untreated control (UTC)
- GLUT4 mRNA (Glut4; [3]): 69 percentage of untreated control (UTC)
- PPAR gamma mRNA (PPARγ; [3]): 91 percentage of untreated control (UTC)

Substance: 328691 (e[5mC]*e[5mC]*e[5mC]*e[5mC]*eA*dT*d[5mC]*dT*dT*dA*dG*d[5mC]*dA*dT*d[5mC]*eT*eA*eA*eG*eG) [compound 328691]
- TG (triglyceride accumulation) (adipocytes; [3]): 130 percentage of untreated control (UTC)
- AP2 mRNA (aP2; [3]): 166 percentage of untreated control (UTC)
- HSL mRNA (HSL; [3]): 156 percentage of untreated control (UTC)
- GLUT4 mRNA (Glut4; [3]): 144 percentage of untreated control (UTC)
- PPAR gamma mRNA (PPARγ; [3]): 105 percentage of untreated control (UTC)
